Eight molecules from ChEMBL document CHEMBL1201862, “PubChem BioAssay data set” (2004) can be followed below.

Common to all, as to experiment: growth of human tumour cells (NCI), 48 h
The test system of experiment [1] is OVCAR-5.
In experiment [2] the test system is K562.
Experiment [3] has as its system U-251.
In experiment [4] the test system is SF-295.
Experiment [5] relates to Hs-578T.
The test system of experiment [6] is NCI-H460.
Experiment [7] relates to HT-29.
Experiment [8] has as its system OVCAR-4.
For experiment [9], the system named is SNB-75.
Experiment [10] relates to 786-0.
Experiment [11] deals with A498.
For experiment [12], the system named is Malme-3M.
The subject of experiment [13] is UO-31.
Experiment [14] concerns SK-MEL-28.
For experiment [15], the system named is LOX IMVI.
For experiment [16], the system named is BT-549.
In experiment [17] the test system is OVCAR-8.
The subject of experiment [18] is NCI-H226.
The subject of experiment [19] is HOP-92.

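The compound was tested at five concentrations on cells cultured in 96-well plates, with a 48-hour exposure period. GI50 = concentration required for 50% inhibition of growth.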 Calls of active or inactive are those of the source. Cut-off read from the data, not from the text of the source: active = GI50 up to about 1.1 µM and inactive = higher.

For the molecule `O=C1NC(=S)N/C1=C\c1cc2c(=O)c3ccccc3sc2s1`, the GI50 is > 100 µM (inactive) in [1]; 29.9 µM (inactive) in experiment [2]; 30.7 µM (inactive) in [3]; 70.5 µM (inactive) in [4]; 64.6 µM (inactive) in [5]; 64 µM (inactive) in experiment [6]. In addition, the GI50 was 55.1 µM (inactive) in [7]; 76 µM (inactive) in [8]; 26.4 µM (inactive) in [9]; 40.2 µM (inactive) in [10]; > 100 µM (inactive) in experiment [11]; > 100 µM (inactive) in experiment [12]. Besides, the GI50 is 58.5 µM (inactive) in experiment [13]; 40.4 µM (inactive) in experiment [14]; 59.7 µM (inactive) in experiment [15]; 35 µM (inactive) in [16]; 57.5 µM (inactive) in [17]; > 100 µM (inactive) in experiment [18].

In the case of `CCN1C(=O)C(=C/C=C/c2ccc(N(CC)CC)cc2)C(=O)N(CC)C1=S`, the GI50 in [1] was > 100 µM (inactive); in experiment [2], 83.9 µM (inactive); in experiment [3], > 100 µM (inactive); in experiment [4], > 100 µM (inactive); in [5] it was > 100 µM (inactive); in experiment [6] it was > 100 µM (inactive). Besides, the GI50 in [7], in [8], in [10], in experiment [19], in [13] and in experiment [14] was > 100 µM (inactive) throughout. Moreover, the GI50 in [15] is > 100 µM (inactive); in [16] it was 40.7 µM (inactive); in [17], > 100 µM (inactive); in experiment [18] it was 93.3 µM (inactive).

As for `CC(=O)O[C@H]1CC[C@@]2(C)C(=CC[C@H]3[C@@H]4C/C(=C\c5ccc(N(C)C)cc5)[C@H](OC(C)=O)[C@@]4(C)CC[C@@H]32)C1`, the GI50 in [1] was 19.6 µM (inactive); in experiment [2], 6.59 µM (inactive); in experiment [3] it was 6.71 µM (inactive); in experiment [4], 4.12 µM (inactive); in experiment [5], 3.72 µM (inactive); in [6] it was 5.19 µM (inactive). Also, the GI50 is 8.43 µM (inactive) in [7]; 14.7 µM (inactive) in experiment [8]; 15.8 µM (inactive) in experiment [9]; 4.36 µM (inactive) in experiment [10]; 18.9 µM (inactive) in [11]; 12.6 µM (inactive) in experiment [12]. Besides, the GI50 in experiment [13] was 11.3 µM (inactive); in [14], 12.7 µM (inactive); in [15] it was 8.91 µM (inactive); in [16], 12 µM (inactive); in experiment [17] it was 11.3 µM (inactive); in experiment [18], 12.1 µM (inactive).

Take `NC(=O)Nc1n[nH]c(-c2ccccc2)n1`: the GI50 in experiment [1] is > 100 µM (inactive); in [2] it was > 100 µM (inactive); in experiment [3] it was > 100 µM (inactive); in experiment [4] it was 0.706 µM (active); in experiment [5], > 100 µM (inactive); in experiment [6], > 100 µM (inactive). Also, the GI50 in experiment [7], in experiment [8], in experiment [9], in experiment [10], in [11] and in experiment [12] was > 100 µM (inactive) each time. For the same molecule, the GI50 in [13], in experiment [14], in experiment [15], in [16], in experiment [17] and in [18] was > 100 µM (inactive) in each case.

As for `N#Cc1c(=O)c2ccccc2n2c1[nH]c1ccccc12`, the GI50 in experiment [1] is > 100 µM (inactive); in experiment [2] it was 21.3 µM (inactive); in experiment [3] it was 34.1 µM (inactive); in [4], 32.8 µM (inactive); in experiment [5], 20.9 µM (inactive); in [6] it was 37 µM (inactive). Besides, the GI50 in experiment [7] is 30.5 µM (inactive); in experiment [8], 24.1 µM (inactive); in experiment [9] it was 43.1 µM (inactive); in experiment [10] it was 41 µM (inactive); in experiment [11], 25.1 µM (inactive); in experiment [13], 33.7 µM (inactive). Also, the GI50 was 52.2 µM (inactive) in experiment [14]; 20.6 µM (inactive) in [15]; 58.3 µM (inactive) in experiment [16]; 27.6 µM (inactive) in experiment [17]; 34.9 µM (inactive) in experiment [18].

As to `CN1CC2CC(C1)c1cccc(=O)n1C2` (stereo unspecified), the GI50 in experiment [1], in experiment [3], in [4], in experiment [5], in [6] and in [7] was > 100 µM (inactive) throughout. For the same molecule, the GI50 in [8], in experiment [9], in [10], in [19], in experiment [12] and in experiment [13] was > 100 µM (inactive) each time. Moreover, the GI50 in [15], in experiment [16] and in [17] was > 100 µM (inactive) in each case.

With `Cc1cn([C@H]2C=C[C@@H](CO)O2)c(=O)[nH]c1=O` [STAVUDINE], the GI50 in experiment [1], in experiment [2], in experiment [3], in experiment [4], in experiment [5] and in [7] was > 1000 µM (inactive) each time. Besides, the GI50 was > 1000 µM (inactive) in experiment [8]; 796 µM (inactive) in experiment [9]; 652 µM (inactive) in experiment [10]; 679 µM (inactive) in [19]; 361 µM (inactive) in experiment [12]; 490 µM (inactive) in [13]. For the same molecule, the GI50 is > 1000 µM (inactive) in experiment [15], 327 µM (inactive) in experiment [16], > 1000 µM (inactive) in experiment [17] and > 1000 µM (inactive) in experiment [18].

As to `COc1ccccc1C(=O)c1ccc2ccccc2c1`, the GI50 in experiment [1] is 64.6 µM (inactive); in [2], 4 µM (inactive); in experiment [3], 13.3 µM (inactive); in [4] it was 22 µM (inactive); in experiment [5], 12.3 µM (inactive); in [6], 15.2 µM (inactive). Besides, the GI50 in experiment [7] was 16.7 µM (inactive); in experiment [8], 36 µM (inactive); in [9], 38.2 µM (inactive); in experiment [10], 30.1 µM (inactive); in experiment [19], 18.7 µM (inactive); in experiment [12], 10.8 µM (inactive). In addition, the GI50 in [13] was 20.6 µM (inactive); in [14] it was 39.3 µM (inactive); in [15], 12.6 µM (inactive); in experiment [16], 16.1 µM (inactive); in [17], 26.4 µM (inactive); in experiment [18], 31.5 µM (inactive).
